Literature values as cited in patent US20250313903A1, “NEOANTIGEN IMMUNOTHERAPY” (Gradalis, Inc., priority 2023, published 2025).
Read-outs that look alike come from different tables or passages of the source.

Assays:
[1] = test system: previously treated, PD-L1 positive, advanced NSCLC; details: in vivo
[2] = test system: advanced renal cell cancer; details: in vivo
[3] = test system: Stage IIIb/IV newly diagnosed ovarian cancer; details: follow up at 74 months
[4] = test system: newly diagnosed advanced high-grade ovarian cancer
[5] = test system: metastatic NSCLC, 2nd line post platinum-based chemotherapy; details: regardless of PD-L1 expression or histology
[6] = test system: extensive stage SCLC, 1st line setting; details: atezolizumab added to carboplatin and etoposide, vs. placebo
[7] = test system: triple-negative breast cancer; details: PD-L1 (TPS) ≥1% cut-off
[8] = test system: newly diagnosed stage III/IV ovarian cancer
[9] = test system: advanced renal cell carcinoma; details: Avelumab + Axitinib vs. sunitinib
[10] = test system: stage III-IV ovarian cancer
[11] = test system: advanced urothelial carcinoma, 2nd line setting; details: in vivo
[12] = test system: chemo-refractory, metastatic Merkel cell carcinoma

CC(=O)O[C@@]12CO[C@@H]1C[C@H](O)[C@@]1(C)C(=O)[C@H](O)C3=C(C)[C@@H](OC(=O)[C@H](O)[C@@H](NC(=O)OC(C)(C)C)c4ccccc4)C[C@@](O)([C@@H](OC(=O)c4ccccc4)[C@H]21)C3(C)C [docetaxel]
OS [1]: 8.5 months

CO[C@H]1C[C@@H]2CC[C@@H](C)[C@@](O)(O2)C(=O)C(=O)N2CCCC[C@H]2C(=O)O[C@H]([C@H](C)C[C@@H]2CC[C@@H](OCCO)[C@H](OC)C2)CC(=O)[C@H](C)/C=C(\C)[C@@H](O)[C@@H](OC)C(=O)[C@H](C)C[C@H](C)/C=C/C=C/C=C/1C [everolimus]
OS [2]: 19.6 months

NC(=O)c1cccc2cn(-c3ccc([C@@H]4CCCNC4)cc3)nc12 [niraparib]
OS HR ([3]; HRP): 0.93
OS HR ([3]; overall): 1.01

CNCc1ccc(-c2[nH]c3cc(F)cc4c3c2CCNC4=O)cc1 [rucaparib]
PFS ([4]; BRCA-wt/LOH low patients): 12.1 months
PFS ([4]; in vivo): 20.2 months

Atezolizumab: PD-L1 blocking antibody
OS (in words) [5]: OS benefit
median OS [6]: Median OS: 12.3 months
median PFS [6]: Median PFS: 5.2 months
median OS ([6]; listed as atezolizumab): 12.3 months
median PFS ([6]; listed as atezolizumab): 5.2 months
OS (in words) [7]: OS benefit
PFS HR vs. placebo arm ([8]; HRP subgroup): 0.82
PFS ([8]; PD-L1+ patients): 20.8 months
PFS HR vs. placebo arm ([8]; PD-L1+ patients): 0.80
median PFS ([8]; atezolizumab with carboplatin plus paclitaxel and bevacizumab): 19.5 months
PFS HR vs. placebo arm ([8]; with carboplatin plus paclitaxel and bevacizumab): 0.92

Avelumab: PD-L1 blocking antibody
ORR ([9]; PD-L1+): 55.2%
median PFS ([9]; PD-L1+): 13.8 months
median PFS ([9]; overall population): median PFS: 13.8
PFS HR vs. chemotherapy alone ([10]; avelumab in combination with chemotherapy): 1.14
median PFS ([10]; avelumab only group): 16.8 months
median PFS ([10]; combination with chemotherapy): 18.1 months
PFS HR vs. chemotherapy alone ([10]; single agent avelumab maintenance): 1.43
24-month OS [11]: OS: 20.1%
CR [11]: 4.1%
ORR [11]: ORR: 16.5%; CR:
PR [11]: 12.4%
median DoR [11]: Median DoR: 20.5 months
median OS [11]: Median OS: 7.0 months
median PFS [11]: Median PFS: 1.6 months
CR, patients ([12]; in vivo): 8/88
ORR, responders/patients ([12]; in vivo): 28/88
ORR ([12]; regardless of PD-L1): ORR: 31.8%
